In article PMC3156712 (2011):

Assays:
[1] = tested on: tRNA^phe (RNA, tRNA) GCGGAUUUAGCUCAGUUGGGAGAGCGCCAGACUGAAGAUCUGGAGGUCCUGUGUUCGAUCCACAGAAUUCGCACCA; test: ITC, single site model; conditions: 20 mM Na+, citrate-phosphate buffer pH 7.0, 20°C, per nucleotide phosphate, per base
[2] = tested on: tRNA^phe (RNA, tRNA) GCGGAUUUAGCUCAGUUGGGAGAGCGCCAGACUGAAGAUCUGGAGGUCCUGUGUUCGAUCCACAGAAUUCGCACCA; test: absorption titration, Scatchard, McGhee-von Hippel; conditions: 20 mM Na+, citrate-phosphate buffer pH 7.0, 20°C, per nucleotide phosphate, per base
[3] = tested on: tRNA^phe (RNA, tRNA) GCGGAUUUAGCUCAGUUGGGAGAGCGCCAGACUGAAGAUCUGGAGGUCCUGUGUUCGAUCCACAGAAUUCGCACCA; test: fluorescence titration, Scatchard, McGhee-von Hippel; conditions: 20 mM Na+, citrate-phosphate buffer pH 7.0, 20°C, per nucleotide phosphate, per base
[4] = tested on: tRNA^phe (RNA, tRNA) GCGGAUUUAGCUCAGUUGGGAGAGCGCCAGACUGAAGAUCUGGAGGUCCUGUGUUCGAUCCACAGAAUUCGCACCA; test: DSC and optical melting; conditions: Na+, citrate-phosphate buffer pH 7.0, third transition (61°C), first unaffected, compound concentration not stated, per base

COc1cccc2c1C(=O)c1c(O)c3c(c(O)c1C2=O)C[C@@](O)(C(C)=O)C[C@@H]3O[C@H]1C[C@H](N)[C@H](O)[C@H](C)O1
K [1]: 22.2 ± 0.1 × 10^4 M^-1 | K′ [2]: 21.20 ± 0.30 × 10^4 M^-1 | K′ [3]: 18.58 ± 0.32 × 10^4 M^-1 | dTm ([4]; second transition about 4°C): 12.5 °C

COc1cccc2c1cc1c3c(cc4c(c32)OCO4)C(=O)N1[C@@H]1O[C@H](CO)[C@@H](O)[C@H](O)[C@H]1O
K ([1]; 240 mM DMSO): 6.5 ± 0.3 × 10^4 M^-1 | K′ ([2]; 240 mM DMSO): 4.33 ± 0.20 × 10^4 M^-1 | K′ ([3]; 240 mM DMSO): 6.38 ± 0.20 × 10^4 M^-1 | dTm ([4]; second transition about 2°C): 7 °C
